Patent publication US8796256B2 (Janssen Pharmaceutica NV, priority 2010, dated 2014)
Like-named read-outs stand apart in the source and are kept apart here.

Assays:
[1] = biological target: T1, ERR1 (also known as ERR-α or ERR-1) (Homo sapiens, UniProt P11474); assay: TR-FRET assay (disruption of co-activator peptide binding to ERR1 LBD); assay type: biochemical; conditions: 6 nM 6His-ERR1LBD, 6 nM GST-SRC-2 peptide; average of 3 independent experiments
T1 sequence (P11474 193-421 limits assumed): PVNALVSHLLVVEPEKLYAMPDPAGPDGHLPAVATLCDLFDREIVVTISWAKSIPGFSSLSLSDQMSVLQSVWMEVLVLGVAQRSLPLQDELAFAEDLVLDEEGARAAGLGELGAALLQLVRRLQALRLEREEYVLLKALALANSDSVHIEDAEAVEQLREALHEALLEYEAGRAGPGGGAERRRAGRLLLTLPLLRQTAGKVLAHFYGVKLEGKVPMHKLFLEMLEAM
How it was run: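 His-tagged ERR1 ligand-binding domain and GST-labelled SRC-2 peptide, each 6 nM, equilibrated at 25° C for 4-18 h in Tris pH 8/Hepes/KCl/DTT/delipidated BSA buffer. Compound-induced loss of co-activator binding read as Eu cryptate→XL665 energy transfer; values from hyperbolic curve fits averaged over 3 independent runs.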

Zucker fa/fa male rats = assay: Zucker fa/fa Rat Model Assay; assay type: in vivo; conditions: po, 120 h, 10 mg/kg orally once a day for 4 days
Description: Zucker fa/fa is a monogenic model of frank diabetes due to a mutation on the fa gene truncating the leptin receptor and preventing its interaction with its peptide hormone. This mutation results in a hyperphagic phenotype and the rodent develops obesity, hyperlipidemia, fasting hyperglycemia and insulin resistance. Zucker fa/fa male rats were received at four weeks of age and allowed to acclimate for one week. At five weeks of age the animals were single housed in cages in a temperature-controlled room with 12-hour light/dark cycle. The rats were allowed ad libitum access to water and food and throughout the study were maintained on a Purina 5008 diet. Animals were sorted based primarily on fed insulin levels and circulating triglycerides. Animals were dosed orally once a day (10 mg/kg) in the morning for 4 days. The vehicle used was either 20% HPβCD (Hydroxypropyl Beta Cyclodextrin) or 15% Vitamin E/30% PEG-400 (Polyethylene Glycol 400). Fed insulin and triglycerides were measured using blood collected from the tail vein at day 5. Serum plasma samples were prepared by centrifugation in EDTA (Ethylenediaminetetraacetic acid) containing tubes, transferred into 96 well plates and stored at −80° C.

[2] = blood from tail vein at day 5, read-out: % Change Fed Insulin Levels
[3] = blood from tail vein at day 5, read-out: % Change Fed Triglyceride Levels

Row | SMILES | EC50 [1] [nM] | change in vivo at 10 mg/kg (Zucker fa/fa male rats; [2]) [%] | change in vivo at 10 mg/kg (Zucker fa/fa male rats; [3]) [%]
1 | CC(=O)NS(=O)(=O)CN1C(=O)S/C(=C\c2ccc3c(cnn3Cc3ccc(Cl)cc3C(F)(F)F)c2)C1=O [Compound 166, N-({[(5Z)-5-({1-[4-Chloro-2-(trifluoromethyl)benzyl]-1H-indazol-5-yl}methylidene)-2,4-dioxo-1,3-thiazolidin-3-yl]methyl}sulfonyl)acetamide] | 8 | -58 | -37
2 | O=C(CN1C(=O)S/C(=C\c2ccc3c(cnn3Cc3ccc(Cl)cc3C(F)(F)F)c2)C1=O)NS(=O)(=O)N1CCCC1 [Compound 38, 2-[(5Z)-5-({1-[4-Chloro-2-(trifluoromethyl)benzyl]-1H-indazol-5-yl}methylidene)-2,4-dioxo-1,3-thiazolidin-3-yl]-N-(pyrrolidin-1-ylsulfonyl)acetamide] | 25 | -47 | 1
3 | Cc1nn(Cc2ccc(Cl)cc2C(F)(F)F)c2ccc(/C=C3\SC(=O)N(CC(=O)NS(=O)(=O)N4CCCC4)C3=O)cc12 [Compound 40, 2-[(5Z)-5-({1-[4-Chloro-2-(trifluoromethyl)benzyl]-3-methyl-1H-indazol-5-yl}methylidene)-2,4-dioxo-1,3-thiazolidin-3-yl]-N-(pyrrolidin-1-ylsulfonyl)acetamide] | 54 | -10 | -23
4 | Cc1nn(Cc2ccc(Cl)cc2C(F)(F)F)c2ccc(/C=C3\SC(=O)N(CC(=O)O)C3=O)cc12 [Compound 36, [(5Z)-5-({1-[4-Chloro-2-(trifluoromethyl)benzyl]-3-methyl-1H-indazol-5-yl}methylidene)-2,4-dioxo-1,3-thiazolidin-3-yl]acetic acid] | 28 | -18 | -4
5 | O=C(O)CN1CCC(N2C(=O)S/C(=C\c3ccc4c(cnn4Cc4ccc(Cl)cc4C(F)(F)F)c3)C2=O)CC1 [Compound 146, {4-[(5Z)-5-({1-[4-Chloro-2-(trifluoromethyl)benzyl]-1H-indazol-5-yl}methylidene)-2,4-dioxo-1,3-thiazolidin-3-yl]piperidin-1-yl}acetic acid] | 16 | -26 | -14
6 | N[C@@H](CO)CN1C(=O)S/C(=C\c2ccc3c(cnn3Cc3ccc(Cl)cc3C(F)(F)F)c2)C1=O [Compound 167, (5Z)-3-[(2R)-2-Amino-3-hydroxypropyl]-5-({1-[4-chloro-2-(trifluoromethyl)benzyl]-1H-indazol-5-yl}methylidene)-1,3-thiazolidine-2,4-dione] | 23 | -33 | -45
7 | O=C(O)CN1C(=O)S/C(=C\c2ccc3c(c2)nnn3Cc2ccc(Cl)cc2C(F)(F)F)C1=O [Compound 260, [(5Z)-5-({1-[4-Chloro-2-(trifluoromethyl)benzyl]-1H-benzotriazol-5-yl}methylidene)-2,4-dioxo-1,3-thiazolidin-3-yl]acetic acid] | 41 | -50 | -23
8 | O=C(O)CN1C(=O)S/C(=C\c2ccc3c(cnn3Cc3ccc(C(F)(F)F)cc3C(F)(F)F)c2)C1=O [Compound 59, [(5Z)-5-({1-[2,4-Bis(trifluoromethyl)benzyl]-1H-indazol-5-yl}methylidene)-2,4-dioxo-1,3-thiazolidin-3-yl]acetic acid] | 26 | -23 | -25
9 | O=C1CN(CCN2C(=O)S/C(=C\c3ccc4c(cnn4Cc4ccc(Cl)cc4C(F)(F)F)c3)C2=O)CCN1 [Compound 79, (5Z)-5-({1-[4-Chloro-2-(trifluoromethyl)benzyl]-1H-indazol-5-yl}methylidene)-3-[2-(3-oxopiperazin-1-yl)ethyl]-1,3-thiazolidine-2,4-dione] | 30 | -20 | 34
10 | O=C1S/C(=C\c2ccc3c(cnn3Cc3ccc(Cl)cc3C(F)(F)F)c2)C(=O)N1Cc1nn[nH]n1 [Compound 72, (5Z)-5-({1-[4-Chloro-2-(trifluoromethyl)benzyl]-1H-indazol-5-yl}methylidene)-3-(2H-tetrazol-5-ylmethyl)-1,3-thiazolidine-2,4-dione] | 13 | -44 | -51
11 | CN(C)S(=O)(=O)NC(=O)CN1C(=O)S/C(=C\c2ccc3c(cnn3Cc3ccc(Cl)cc3C(F)(F)F)c2)C1=O [Compound 35, 2-[(5Z)-5-({1-[4-Chloro-2-(trifluoromethyl)benzyl]-1H-indazol-5-yl}methylidene)-2,4-dioxo-1,3-thiazolidin-3-yl]-N-(dimethylsulfamoyl) acetamide] | 23 | -29 | -46
12 | CN1C2CCC1CC(N1C(=O)S/C(=C\c3ccc4c(cnn4Cc4ccc(Cl)cc4C(F)(F)F)c3)C1=O)C2 (stereo not shown) [Compound 128, (5Z)-5-({1-[4-Chloro-2-(trifluoromethyl)benzyl]-1H-indazol-5-yl}methylidene)-3-(8-methyl-8-azabicyclo[3.2.1]oct-3-yl)-1,3-thiazolidine-2,4-dione] | 19 | -36 | 28
13 | CN1CC[C@@H](N2C(=O)S/C(=C\c3ccc4c(cnn4Cc4ccc(Cl)cc4C(F)(F)F)c3)C2=O)[C@H](F)C1 [Compound 383, (5Z)-5-({1-[4-Chloro-2-(trifluoromethyl)benzyl]-1H-indazol-5-yl}methylidene)-3-[(3R,4R)-3-fluoro-1-methylpiperidin-4-yl]-1,3-thiazolidine-2,4-dione] | 23 | -67 | -68
14 | O=C1S/C(=C\c2ccc3c(c2)c(O)nn3Cc2ccc(Cl)cc2C(F)(F)F)C(=O)N1CCN1CCCC1 [Compound 37, (5Z)-5-({1-[4-Chloro-2-(trifluoromethyl)benzyl]-3-oxo-2,3-dihydro-1H-indazol-5-yl}methylidene)-3-(2-pyrrolidin-1-ylethyl)-1,3-thiazolidine-2,4-dione] | 290 |  | 
15 | COC(=O)C(Cc1cn(C)cn1)N1C(=O)S/C(=C\c2ccc3c(cnn3Cc3ccc(Cl)cc3C(F)(F)F)c2)C1=O (stereo not shown) [Compound 214, Methyl 2-[(5Z)-5-({1-[4-chloro-2-(trifluoromethyl)benzyl]-1H-indazol-5-yl}methylidene)-2,4-dioxo-1,3-thiazolidin-3-yl]-3-(1-methyl-1H-imidazol-4-yl)propanoate] | 44 |  | 
16 | CC(C)C[C@H](N)CN1C(=O)S/C(=C\c2ccc3c(cnn3Cc3ccc(Cl)cc3C(F)(F)F)c2)C1=O [Compound 53, (5Z)-3-[(2S)-2-Amino-4-methylpentyl]-5-({1-[4-chloro-2-(trifluoromethyl)benzyl]-1H-indazol-5-yl}methylidene)-1,3-thiazolidine-2,4-dione] | 39 |  | 
17 | O=C1S/C(=C\c2ccc3c(cnn3Cc3ccc(Cl)cc3C(F)(F)F)c2)C(=O)N1CCN1CCN[C@@H](CO)C1 [Compound 282, (5Z)-5-({1-[4-Chloro-2-(trifluoromethyl)benzyl]-1H-indazol-5-yl}methylidene)-3-{2-[(3R)-3-(hydroxymethyl)piperazin-1-yl]ethyl}-1,3-thiazolidine-2,4-dione] | 361 |  | 
18 | O=C1S/C(=C\c2ccc3c(cnn3Cc3ccc(Cl)cc3C(F)(F)F)c2)C(=O)N1Cc1ncon1 [Compound 401, (5Z)-5-({1-[4-Chloro-2-(trifluoromethyl)benzyl]-1H-indazol-5-yl}methylidene)-3-(1,2,4-oxadiazol-3-ylmethyl)-1,3-thiazolidine-2,4-dione] | 36 |  | 
19 | O=C1S/C(=C\c2ccc3c(cnn3Cc3ccc(Cl)cc3C(F)(F)F)c2)C(=O)N1CCNS(=O)(=O)CCl [Compound 385, 1-Chloro-N-{2-[(5Z)-5-({1-[4-chloro-2-(trifluoromethyl)benzyl]-1H-indazol-5-yl}methylidene)-2,4-dioxo-1,3-thiazolidin-3-yl]ethyl}methanesulfonamide] | 39 |  | 
20 | O=C1S/C(=C\c2ccc3c(cnn3Cc3ccc(Cl)cc3C(F)(F)F)c2)C(=O)N1C1CCN(CC(F)(F)F)CC1 [Compound 150, (5Z)-5-({1-[4-Chloro-2-(trifluoromethyl)benzyl]-1H-indazol-5-yl}methylidene)-3-[1-(2,2,2-trifluoroethyl)piperidin-4-yl]-1,3-thiazolidine-2,4-dione] | 57 |  | 
